This note sets out measurements from patent publication US20230255943A1, “MMP-9 AND MMP-12 INHIBITION FOR TREATING SPINAL CORD INJURY OR RELATED INJURY TO NEUROLOGICAL TISSUE” (The University of Birmingham, priority 2020, published 2023).

The structures appear in SMILES notation.

The test system of assay [1] is mice with DC crush injury. Description: Electrophysiology: compound action potentials (CAP) across DC lesion in mice. It counts as in vivo, mouse. On the procedure:
Compound action potentials (CAP) were recorded at 6 w weeks after DC injury and treatment, as described previously—for example B. C. Hains, C. Y. Saab, A. C. Lo, S. G. Waxman, Sodium channel blockade with phenytoin protects spinal cord axons, enhances axonal conduction, and improves functional motor recovery after contusion SCI. Exp Neurol 188, 365-377 (2004).
Briefly, the experimenter was masked to the treatment status of the animals and the CAP amplitude was calculated between the negative deflection after the stimulus artifact and the next peak of the wave. CAP area was also calculated by rectifying the CAP component (full-wave rectification) and measuring its area. To confirm our recordings and that a CAP could not be recorded, the dorsal half of the spinal cord was transected after each experiment between the stimulating and recording electrodes.

Assay [2] relates to gelatinase enzyme activity. Nature of the assay: In situ zymography of DC-injured spinal cord sections. It counts as in vivo, mouse. The note with it: oral and intrathecally-administered. The procedure: Animals were killed by CO2 overdose intracardially perfused with warm PBS and unfixed tissues were harvested. […] In situ zymography was performed as described previously (Z. Ahmed, R. G. Dent, W. E. Leadbeater, C. Smith, M. Berry, A. Logan, Matrix metalloproteases: degradation of the inhibitory environment of the transected optic nerve and the scar by regenerating axons. Mol Cell Neurosci 28, 64-78 (2005)).
Briefly, 15 μm-thick unfixed frozen longitudinal sections of the spinal cord were cut on a cryostat and incubated at 25° C., for 24 h in 50 mM Tris, pH 7.4, 150 mM NaCl, 5 mM CaCl2, 0.2 mM sodium azide and 40 ug/ml fluorescein conjugated DQ™ gelatin (Molecular Probes). Upon proteolysis, the highly fluoresceinated gelatin residues became separated and fluorescence resulted. Control sections were incubated either without DQ™ gelatin or incubated with 50 μM 1,10-phenanthroline (Sigma, Poole, UK) to block MMP activation. […] After final washes in PBS, sections were mounted in Vectashield with DAPI (Vector Laboratories, Loughborough, UK) and viewed with a Zeiss Axioplan 2 fluorescence microscope, equipped with an AxioCam HRc and running Axiovision software (Zeiss, Hertfordshire, UK).

In another assay the target is T1, MMP-12 (Rattus norvegicus, UniProt Q63341).
T1 construct: from tissue; host or cells: Sprague-Dawley rat spinal cord lesion site
Description: MMP-12 activity after DC injury in rats. The note with it: oral. It counts as in vivo. The procedure: The efficacy of oral AZD3342 in the DC injury model in adult Sprague-Dawley rat was also assessed. Animals were divided into 6 groups: (1), Sham (control); (2), DC crush injury+Vehicle; (3), DC crush injury+15 mg/kg AZD3342; (4), DC crush injury+75 mg/kg […]; (5), DC crush injury+375 mg/kg AZD3342; and (6), DC crush injury+Melatonin. Animals were dosed twice daily with oral AZD3342 or vehicle with the experimenters masked to the treatment conditions. These experiments were performed with n=6 rats/group and repeated on 2-3 independent occasions (total n=12-18 rats/group/test).
The lesion site+3 mm either side for mouse (DC and CC SCI) and lesion site+5 mm either side for rat was dissected (n=6 mice/rats/group, 2 independent repeats, total n=12 mice/rats/group) and rapidly frozen in liquid N2 and stored at −80° C. until required. The enzymatic activity of MMP-9 and MMP-12 was determined in 96-well plates using the SensoLyte 520 MMP-9 and MMP-12 fluorimetric assay kit, according to the manufacturer's instructions (AnaSpec, Fremont, Calif., USA). Fluorescence intensity was measured using a Synergy H1 microplate reader (BioTek UK, Swindon, UK) at Ex/Em=490/520 nm.

T1 sequence (Q63341 102-465): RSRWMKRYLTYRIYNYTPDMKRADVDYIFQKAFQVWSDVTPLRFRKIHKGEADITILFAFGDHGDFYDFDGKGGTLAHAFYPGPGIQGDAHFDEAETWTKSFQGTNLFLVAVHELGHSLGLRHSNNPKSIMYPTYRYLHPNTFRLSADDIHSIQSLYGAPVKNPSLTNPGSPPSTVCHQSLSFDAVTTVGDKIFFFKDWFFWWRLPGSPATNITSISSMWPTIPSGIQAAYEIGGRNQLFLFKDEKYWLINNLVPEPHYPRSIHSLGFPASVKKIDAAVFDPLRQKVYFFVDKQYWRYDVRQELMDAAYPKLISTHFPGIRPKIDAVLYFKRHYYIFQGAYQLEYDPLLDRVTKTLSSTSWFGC

On to `C[C@]1(CS(=O)(=O)N2CC=C(C#Cc3cnc(C4CC4)nc3)CC2)NC(=O)NC1=O` [AZD1236], for which the “dorsum cord potentials, CAP amplitudes, CAP areas, 24-h delayed treatment” value in assay [1] (optimal doses, 24 h delay vs immediate) was “equally as effective as immediate delivery”. In assay [1] (oral), the “CAP area relative to Sham-treated controls” value is recorded as 80%. For the same molecule, in assay [1] (oral 200 mg/kg, 6 weeks after DC injury), the CAP wave result was “restored a significant CAP wave”. For the same molecule, the “mean CAP amplitude” value in assay [1] (oral, all stimulation intensities) is “significantly larger CAP amplitudes”. For the same molecule, the CAP area in assay [1] (oral, sham 0.65±0.02, DC+vehicle 0.06±0.02) amounted to 0.52±0.09 mV×ms. Further, the “DC injury-induced gelatinase activity adjacent to the lesion site” value in assay [2] is on record as “completely suppressed”.
Regarding `C[C@]1(CS(=O)(=O)N2CCC(Oc3ccc(Cl)cn3)CC2)NC(=O)NC1=O` [AZD3342, (5S)-5-[4-(5-chloro-pyridin-2-yloxy)-piperidine-1-sulfonylmethyl]-5-methylimidazolidine-2,4-dione], the MMP-12 activity entry at MMP-12 was “significantly suppresses”.
